Measured values: US12139492B2 (Endotarget Inc., priority 2021, dated 2024)
Where two headings read alike, the source gives them in different places.

What was measured:
Mino cells = assay: Antiproliferative effect, MTS cell viability assay, Mino cells; type: cell-based; conditions: Homo sapiens, MINO, Mino mantle cell lymphoma cells; read-out: IC50 (anti-proliferation) Mino cells
Outline: (§1)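 Readout was MTS-derived formazan absorbance (490 nm) reflecting metabolically active cells. Treatment lasted 72 h over a 0–10 μM range (0.001, 0.01, 0.1, 1, 10 μM) in JeKo-1 and Mino B-cell malignancy cells.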

JeKo-1 cells = assay: Antiproliferative effect, MTS cell viability assay, JeKo-1 cells; type: cell-based; conditions: Homo sapiens; JeKo-1 mantle cell lymphoma cells; read-out: IC50 (anti-proliferation) JeKO-1 cells
Outline: as §1

BTK = BTK (Homo sapiens, UniProt Q06187); assay: Degradation of BTK protein in Namalwa cells (Western blot; DC50, Dmax); conditions: for DC50: cell line not given
BTK, sequence (Q06187 whole entry): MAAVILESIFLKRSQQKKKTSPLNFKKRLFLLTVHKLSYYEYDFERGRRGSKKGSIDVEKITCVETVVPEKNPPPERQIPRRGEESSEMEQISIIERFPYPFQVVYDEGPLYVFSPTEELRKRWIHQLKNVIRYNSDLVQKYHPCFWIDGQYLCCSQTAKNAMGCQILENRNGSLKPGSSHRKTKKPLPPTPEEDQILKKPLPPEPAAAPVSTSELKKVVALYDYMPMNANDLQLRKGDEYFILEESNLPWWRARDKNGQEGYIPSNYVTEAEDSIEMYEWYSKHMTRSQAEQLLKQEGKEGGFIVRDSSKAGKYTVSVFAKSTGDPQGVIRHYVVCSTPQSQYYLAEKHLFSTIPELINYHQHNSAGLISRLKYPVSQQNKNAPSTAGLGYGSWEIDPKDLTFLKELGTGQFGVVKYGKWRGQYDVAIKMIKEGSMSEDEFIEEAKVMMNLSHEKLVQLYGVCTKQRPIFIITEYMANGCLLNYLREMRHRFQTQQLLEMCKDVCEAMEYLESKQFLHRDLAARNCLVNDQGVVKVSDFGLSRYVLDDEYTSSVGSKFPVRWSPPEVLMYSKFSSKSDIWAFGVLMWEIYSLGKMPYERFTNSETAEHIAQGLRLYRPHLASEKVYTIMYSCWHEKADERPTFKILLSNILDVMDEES

[1] = read-out: DC50 (BTK degradation), concentration giving 50% reduction of BTK expression level
[2] = read-out: Dmax (BTK degradation)

SMILES | IC50 (Mino cells) | IC50 (JeKo-1 cells) | DC50 (BTK; [1]) | Dmax (BTK; [2]) | Dmax (BTK) | DC50 (BTK; BTK degradation) | degradation of BTK protein (BTK; Namalwa B lymphocyte cells, various concentrations, 24 hours, Western blot)
NC(=O)c1c(-c2ccc(Oc3ccccc3)cc2)nn2c1NCC[C@H]2C1CCN(CC2CCN(C(=O)N3CCC(N4CCC(c5ccc6c(c5)C(=O)N(C5CCC(=O)NC5=O)C6=O)CC4)CC3)CC2)CC1 (stereo partly drawn) [Compound 407, (7S)-7-(1-((1-(4-(2-(2,6-dioxopiperidin-3-yl)-1,3-dioxoisoindolin-5-yl)-[1,4′-bipiperidine]-1′-carbonyl)piperidin-4-yl)methyl)piperidin-4-yl)-2-(4-phenoxyphenyl)-4,5,6,7-tetrahydropyrazolo[1,5-a]pyrimidine-3-carboxamide] | 1000 to 10000 nM | > 10000 nM | 10 to 50 nM | > 75% | – | – | –
NC1=NC=NC2C1C(c1ccc(Oc3ccccc3)cc1)=NN2[C@@H]1CCCN(C(=O)N2CC(C3CN(c4ccc5c(c4)CN(C4CCC(=O)NC4=O)C5=O)C3)C2)C1 (stereo partly drawn) [Compound 498, 3-(5-(1′-((3R)-3-(4-amino-3-(4-phenoxyphenyl)-3a,7a-dihydro-1H-pyrazolo[3,4-d]pyrimidin-1-yl)piperidin-1-carbonyl)-[3,3′-biazetidin]-1-yl)-1-oxoisoindolin-2-yl)piperidine-2,6-dione] | < 1000 nM | < 1000 nM | < 10 nM | > 90% | – | – | –
NC(=O)c1c(-c2ccc(Oc3ccccc3)cc2)nn2c1NCCC2C1CCN(C2CCN(C(=O)N3CCN(c4ccc5c(c4)CN(C4CCC(=O)NC4=O)C5=O)CC3)CC2)CC1 (centres unmarked) [Compound 338, 7-(1′-(4-(2-(2,6-dioxopiperidin-3-yl)-1-oxoisoindolin-5-yl)piperazine-1-carbonyl)-[1,4′-bipiperidin]-4-yl)-2-(4-phenoxyphenyl)-4,5,6,7-tetrahydropyrazolo[1,5-a]pyrimidine-3-carboxamide] | 1000 to 10000 nM | > 10000 nM | – | – | > 50% | > 50 nM | –
Nc1ncnc2c1c(-c1ccc(Oc3ccccc3)cc1)nn2C1CCN(CCN2CCC(CC3CCN(c4ccc(NC5CCC(=O)NC5=O)cc4)CC3)CC2)CC1 (centres unmarked) [Compound 559, 3-((4-(4-((1-(2-(4-(4-amino-3-(4-phenoxyphenyl)-1H-pyrazolo[3,4-d]pyrimidin-1-yl)piperidin-1-yl)ethyl)piperidin-4-yl)methyl)piperidin-1-yl)phenyl)amino)piperidine-2,6-dione] | < 1000 nM | < 1000 nM | < 10 nM | > 90% | – | – | –
NC(=O)c1c(-c2ccc(Oc3ccccc3)cc2)nn2c1NCCC2C1CCN(CC2CCN(C(=O)N3CCC(N4CCC(c5ccc6c(c5)C(=O)N(C5CCC(=O)NC5=O)C6=O)CC4)CC3)CC2)CC1 (centres unmarked) [Compound 367, 7-(1-((1-(4-(2-(2,6-dioxopiperidin-3-yl)-1,3-dioxoisoindolin-5-yl)-[1,4′-bipiperidine]-1′-carbonyl)piperidin-4-yl)methyl)piperidin-4-yl)-2-(4-phenoxyphenyl)-4,5,6,7-tetrahydropyrazolo[1,5-a]pyrimidine-3-carboxamide] | < 1000 nM | 1000 to 10000 nM | – | – | > 90% | 10 to 50 nM | –
Nc1ncnc2c1c(-c1ccc(Oc3ccccc3)cc1)nn2C1CCN(CCN2CC(N3CCN(c4ccc5c(c4)C(=O)N(C4CCC(=O)NC4=O)C5=O)CC3)C2)CC1 (centres unmarked) [Compound 463, 5-(4-(1-(2-(4-(4-amino-3-(4-phenoxyphenyl)-1H-pyrazolo[3,4-d]pyrimidin-1-yl)piperidin-1-yl)ethyl)azetidin-3-yl)piperazin-1-yl)-2-(2,6-dioxopiperidin-3-yl)isoindoline-1,3-dione] | < 1000 nM | < 1000 nM | 10 to 50 nM | > 90% | – | – | –
Nc1ncnc2c1c(-c1ccc(Oc3ccccc3)cc1)nn2C1CCN(CC2CCN(CC3CN(c4ccc5c(c4)C(=O)N(C4CCC(=O)NC4=O)C5=O)C3)C2)CC1 (centres unmarked) [Compound 423, 5-(3-((3-((4-(4-amino-3-(4-phenoxyphenyl)-1H-pyrazolo(3,4-d)pyrimidin-1-yl)piperidin-1-yl)methyl)pyrrolidin-1-yl)methyl)azetidin-1-yl)-2-(2,6-dioxopiperidin-3-yl)isoindoline-1,3-dione] | < 1000 nM | 1000 to 10000 nM | 10 to 50 nM | > 90% | – | – | dose-dependent degradation
NC(=O)c1c(-c2ccc(Oc3ccccc3)cc2)nn2c1NCCC2C1CCN(CC2CCN(C(=O)N3CCC(CN4CCN(c5ccc6c(c5)C(=O)N(C5CCC(=O)NC5=O)C6=O)CC4)CC3)CC2)CC1 (centres unmarked) [Compound 369, 7-(1-((1-(4-((4-(2-(2,6-dioxopiperidin-3-yl)-1,3-dioxoisoindolin-5-yl)piperazin-1-yl)methyl)piperidine-1-carbonyl)piperidin-4-yl)methyl)piperidin-4-yl)-2-(4-phenoxyphenyl)-4,5,6,7-tetrahydropyrazolo[1,5-a]pyrimidine-3-carboxamide] | < 1000 nM | 1000 to 10000 nM | – | – | > 90% | < 10 nM | –
NC(=O)c1c(-c2ccc(Oc3ccccc3)cc2)nn2c1NCC[C@H]2C1CCN(CCOCCOCCN2CCN(c3ccc4c(c3)C(=O)N(C3CCC(=O)NC3=O)C4=O)CC2)CC1 (stereo partly drawn) [Compound 271, (7S)-7-(1-(2-(2-(2-(4-(2-(2,6-dioxopiperidin-3-yl)-1,3-dioxoisoindolin-5-yl)piperazin-1-yl)ethoxy)ethoxy)ethyl)piperidin-4-yl)-2-(4-phenoxyphenyl)-4,5,6,7-tetrahydropyrazolo[1,5-a]pyrimidine-3-carboxamide] | 1000 to 10000 nM | > 10000 nM | – | – | > 90% | 10 to 50 nM | –
Nc1ncnc2c1c(-c1ccc(Oc3ccccc3)cc1)nn2C1CCN(CC2CCN(CCCN3CCN(c4ccc5c(c4)C(=O)N(C4CCC(=O)NC4=O)C5=O)CC3)CC2)CC1 (centres unmarked) [Compound 207] | > 10000 nM | > 10000 nM | – | – | > 75% | > 50 nM | –
Nc1ncnc2c1c(-c1ccc(Oc3ccccc3)cc1)nn2C1CCN(CC2CCN(CC3CN(c4ccc5c(c4)CN(C4CCC(=O)NC4=O)C5=O)C3)C2)CC1 (centres unmarked) [Compound 424, 3-(5-(3-((3-((4-(4-amino-3-(4-phenoxyphenyl)-1H-pyrazolo[3,4-d]pyrimidin-1-yl)piperidin-1-yl)methyl)pyrrolidin-1-yl)methyl)azetidin-1-yl)-1-oxoisoindolin-2-yl)piperidine-2,6-dione] | < 1000 nM | < 1000 nM | 10 to 50 nM | > 90% | – | – | –
Nc1ncnc2c1c(-c1ccc(Oc3ccccc3)cc1)nn2C1CCC(C(=O)N2CC(C3CCN(c4ccc5c(c4)CN(C4CCC(=O)NC4=O)C5=O)CC3)C2)CC1 (centres unmarked) [Compound 514, 3-(5-(4-(1-(4-(4-amino-3-(4-phenoxyphenyl)-1H-pyrazolo[3,4-d]pyrimidin-1-yl)cyclohexane-1-carbonyl)azetidin-3-yl)piperidin-1-yl)-1-oxoisoindolin-2-yl)piperidine-2,6-dione] | < 1000 nM | < 1000 nM | < 10 nM | > 90% | – | – | –
NC(=O)c1c(-c2ccc(Oc3ccccc3)cc2)nn2c1NCCC2C1CCN(C2CCN(CCC3CCN(c4ccc5c(c4)C(=O)N(C4CCC(=O)NC4=O)C5=O)CC3)CC2)CC1 (centres unmarked) [Compound 309, 7-(1′-(2-(1-(2-(2,6-dioxopiperidin-3-yl)-1,3-dioxoisoindolin-5-yl)piperidin-4-yl)ethyl)-[1,4′-bipiperidin]-4-yl)-2-(4-phenoxyphenyl)-4,5,6,7-tetrahydropyrazolo[1,5-a]pyrimidine-3-carboxamide] | > 10000 nM | > 10000 nM | – | – | > 75% | 10 to 50 nM | –
